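Grown in 96-well plates, cells were treated for 48 hours with each compound at five concentrations. Insufficient inhibition: endpoint recorded as highest concentration tested. Abbreviation: GI50, concentration required for 50% inhibition of growth. Definition used: TGI = concentration required for complete inhibition of growth.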
Key:
Experiment in all cases: DTP human tumour cell line panel, 48 h
786-0 renal = test system: 786-0 renal
A498 renal = test system: A498 renal
A549 NSCLC = test system: A549 NSCLC
ACHN renal = test system: ACHN renal
BT-549 breast = test system: BT-549 breast
CAKI-1 renal = test system: CAKI-1 renal
CCRF-CEM leukemia = test system: CCRF-CEM leukemia
COLO 205 colon = test system: COLO 205 colon
DU-145 prostate = test system: DU-145 prostate
HCC-2998 colon = test system: HCC-2998 colon
HCT-116 colon = test system: HCT-116 colon
HCT-15 colon = test system: HCT-15 colon
HOP-62 NSCLC = test system: HOP-62 NSCLC
HOP-92 NSCLC = test system: HOP-92 NSCLC
HS 578T breast = test system: HS 578T breast
HT29 colon = test system: HT29 colon
IGROV1 ovarian = test system: IGROV1 ovarian
K-562 leukemia = test system: K-562 leukemia
KM12 colon = test system: KM12 colon
LOX IMVI melanoma = test system: LOX IMVI melanoma
M14 melanoma = test system: M14 melanoma
MALME-3M melanoma = test system: MALME-3M melanoma
MCF7 breast = test system: MCF7 breast
MDA-MB-231 breast = test system: MDA-MB-231 breast
MDA-MB-435 = test system: MDA-MB-435
MOLT-4 leukemia = test system: MOLT-4 leukemia
NCI-H226 lung = test system: NCI-H226 lung
NCI-H460 lung = test system: NCI-H460 lung
NCI-H522 lung = test system: NCI-H522 lung
NCI/ADR-RES ovarian = test system: NCI/ADR-RES ovarian
OVCAR-3 ovarian = test system: OVCAR-3 ovarian
OVCAR-4 ovarian = test system: OVCAR-4 ovarian
OVCAR-5 ovarian = test system: OVCAR-5 ovarian
OVCAR-8 ovarian = test system: OVCAR-8 ovarian
RPMI-8226 leukemia = test system: RPMI-8226 leukemia
RXF 393 renal = test system: RXF 393 renal
SF-268 CNS = test system: SF-268 CNS
SF-295 CNS = test system: SF-295 CNS
SF-539 CNS = test system: SF-539 CNS
SK-MEL-2 melanoma = test system: SK-MEL-2 melanoma
SK-MEL-28 melanoma = test system: SK-MEL-28 melanoma
SK-MEL-5 melanoma = test system: SK-MEL-5 melanoma
SK-OV-3 ovarian = test system: SK-OV-3 ovarian
SN12C renal = test system: SN12C renal
SNB-19 CNS = test system: SNB-19 CNS
SNB-75 CNS = test system: SNB-75 CNS
SR leukemia = test system: SR leukemia
SW-620 colon = test system: SW-620 colon
T-47D breast = test system: T-47D breast
TK-10 renal = test system: TK-10 renal
U251 CNS = test system: U251 CNS
UACC-257 melanoma = test system: UACC-257 melanoma
UO-31 renal = test system: UO-31 renal

`C[CH2][Pb]([CH2]C)([CH2]C)[O]C(=O)COc1ccccc1` gave a GI50 (786-0 renal) of 2130 nM, a TGI (786-0 renal) of 5720 nM and a GI50 (A498 renal) of 1750 nM. The TGI (A498 renal) was 6610 nM, the GI50 (A549 NSCLC) was 1820 nM and the TGI (A549 NSCLC) was 5650 nM. For the same molecule, the GI50 (ACHN renal) was 2510 nM, the TGI (ACHN renal) was 11300 nM and the GI50 (BT-549 breast) was 1780 nM. The TGI (BT-549 breast) was 6400 nM, the GI50 (CAKI-1 renal) was 1950 nM and the TGI (CAKI-1 renal) was 6180 nM. It also gave a GI50 (CCRF-CEM leukemia) of 1230 nM, a TGI (CCRF-CEM leukemia) of 4860 nM and a GI50 (COLO 205 colon) of 1960 nM. The TGI (COLO 205 colon) was 4510 nM, the GI50 (DU-145 prostate) was 2430 nM and the TGI (DU-145 prostate) was 10700 nM. The GI50 (HCC-2998 colon) was 1650 nM, the TGI (HCC-2998 colon) was 3850 nM and the GI50 (HCT-116 colon) was 1440 nM. The TGI (HCT-116 colon) was 2900 nM, the GI50 (HCT-15 colon) was 1980 nM and the TGI (HCT-15 colon) was 11600 nM. The GI50 (HOP-62 NSCLC) was 1640 nM, the TGI (HOP-62 NSCLC) was 3760 nM and the GI50 (HOP-92 NSCLC) was 390 nM. The TGI (HOP-92 NSCLC) was 4100 nM, the GI50 (HS 578T breast) was 1530 nM and the TGI (HS 578T breast) was 5200 nM. It also gave a GI50 (HT29 colon) of 1740 nM, a TGI (HT29 colon) of 4610 nM and a GI50 (IGROV1 ovarian) of 1640 nM. For the same molecule, the TGI (IGROV1 ovarian) was 6520 nM, the GI50 (K-562 leukemia) was 1470 nM and the TGI (K-562 leukemia) was 6640 nM. The GI50 (KM12 colon) was 1510 nM, the TGI (KM12 colon) was 5840 nM and the GI50 (LOX IMVI melanoma) was 1400 nM. The TGI (LOX IMVI melanoma) was 3220 nM, the GI50 (M14 melanoma) was 1390 nM and the TGI (M14 melanoma) was 6670 nM. The GI50 (MALME-3M melanoma) was 441 nM, the TGI (MALME-3M melanoma) was 7110 nM and the GI50 (MCF7 breast) was 1770 nM. For the same molecule, the TGI (MCF7 breast) was 9340 nM, the GI50 (MDA-MB-231 breast) was 1630 nM and the TGI (MDA-MB-231 breast) was 4840 nM. For the same molecule, the GI50 (MDA-MB-435) was 214 nM, the TGI (MDA-MB-435) was 502 nM and the GI50 (MOLT-4 leukemia) was 1950 nM. For the same molecule, the TGI (MOLT-4 leukemia) was 4630 nM, the GI50 (NCI-H226 lung) was 1830 nM and the TGI (NCI-H226 lung) was 6040 nM. The GI50 (NCI-H460 lung) was 2210 nM, the TGI (NCI-H460 lung) was 5940 nM and the GI50 (NCI-H522 lung) was 562 nM. It also gave a TGI (NCI-H522 lung) of 2110 nM, a GI50 (NCI/ADR-RES ovarian) of 1970 nM and a TGI (NCI/ADR-RES ovarian) of 9240 nM. The GI50 (OVCAR-3 ovarian) was 1700 nM, the TGI (OVCAR-3 ovarian) was 5270 nM and the GI50 (OVCAR-4 ovarian) was 949 nM. For the same molecule, the TGI (OVCAR-4 ovarian) was 4960 nM, the GI50 (OVCAR-5 ovarian) was 1740 nM and the TGI (OVCAR-5 ovarian) was 4610 nM. For the same molecule, the GI50 (OVCAR-8 ovarian) was 1760 nM, the TGI (OVCAR-8 ovarian) was 5680 nM and the GI50 (RPMI-8226 leukemia) was 1030 nM. For the same molecule, the TGI (RPMI-8226 leukemia) was 3120 nM, the GI50 (RXF 393 renal) was 1050 nM and the TGI (RXF 393 renal) was 3260 nM. The GI50 (SF-268 CNS) was 1670 nM, the TGI (SF-268 CNS) was 4540 nM and the GI50 (SF-295 CNS) was 1510 nM. It also gave a TGI (SF-295 CNS) of 3130 nM, a GI50 (SF-539 CNS) of 1810 nM and a TGI (SF-539 CNS) of 4630 nM. For the same molecule, the GI50 (SK-MEL-2 melanoma) was 382 nM, the TGI (SK-MEL-2 melanoma) was 1730 nM and the GI50 (SK-MEL-28 melanoma) was 784 nM. The TGI (SK-MEL-28 melanoma) was 11000 nM, the GI50 (SK-MEL-5 melanoma) was 1190 nM and the TGI (SK-MEL-5 melanoma) was 2560 nM. The GI50 (SK-OV-3 ovarian) was 2080 nM, the TGI (SK-OV-3 ovarian) was 6100 nM and the GI50 (SN12C renal) was 2390 nM. The TGI (SN12C renal) was 9610 nM, the GI50 (SNB-19 CNS) was 2360 nM and the TGI (SNB-19 CNS) was 11300 nM. The GI50 (SNB-75 CNS) was 1240 nM, the TGI (SNB-75 CNS) was 11300 nM and the GI50 (SR leukemia) was 595 nM. It also gave a TGI (SR leukemia) of 3880 nM, a GI50 (SW-620 colon) of 641 nM and a TGI (SW-620 colon) of 2470 nM. It also gave a GI50 (T-47D breast) of 757 nM, a TGI (T-47D breast) of 8820 nM and a GI50 (TK-10 renal) of 1630 nM. The TGI (TK-10 renal) was 5210 nM, the GI50 (U251 CNS) was 1740 nM and the TGI (U251 CNS) was 3890 nM. The GI50 (UACC-257 melanoma) was 557 nM, the TGI (UACC-257 melanoma) was 4750 nM and the GI50 (UO-31 renal) was 1050 nM. For the same molecule, the TGI (UO-31 renal) was 3700 nM.

From PubChem BioAssay (NCI)
